Test results from patent EP0877740B1, “THIOL DERIVATIVES WITH METALLOPEPTIDASE INHIBITORY ACTIVITY” (ZAMBON GROUP S.p.A., priority 1995, dated 1997).
Where two headings read alike, the source gives them in different places.

Biological target: T1, NEP (Rattus norvegicus, UniProt P07861)
T1 sequence (P07861 1-750): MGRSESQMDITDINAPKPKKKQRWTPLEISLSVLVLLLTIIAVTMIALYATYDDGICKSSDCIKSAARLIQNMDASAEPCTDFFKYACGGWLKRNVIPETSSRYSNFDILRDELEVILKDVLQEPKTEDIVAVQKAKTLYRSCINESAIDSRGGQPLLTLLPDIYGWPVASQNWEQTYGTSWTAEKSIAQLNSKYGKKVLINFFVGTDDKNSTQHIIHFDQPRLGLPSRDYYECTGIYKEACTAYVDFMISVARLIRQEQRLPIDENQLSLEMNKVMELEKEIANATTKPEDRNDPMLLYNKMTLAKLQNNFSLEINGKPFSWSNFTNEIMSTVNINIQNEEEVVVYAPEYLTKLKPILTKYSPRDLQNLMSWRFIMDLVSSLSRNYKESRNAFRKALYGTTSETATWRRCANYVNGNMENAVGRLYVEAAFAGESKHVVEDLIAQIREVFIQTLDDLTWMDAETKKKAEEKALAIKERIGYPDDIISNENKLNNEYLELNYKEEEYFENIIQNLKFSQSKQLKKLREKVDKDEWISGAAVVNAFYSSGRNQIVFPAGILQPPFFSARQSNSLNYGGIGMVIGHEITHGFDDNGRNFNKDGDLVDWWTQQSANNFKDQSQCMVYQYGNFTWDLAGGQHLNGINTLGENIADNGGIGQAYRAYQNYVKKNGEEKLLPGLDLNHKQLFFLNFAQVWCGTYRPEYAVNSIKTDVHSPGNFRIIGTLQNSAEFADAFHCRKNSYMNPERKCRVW
Assay: Ex vivo NEP-inhibitory activity in kidney homogenates of treated SHR (GAAP substrate)
Set-up: After the removal of the kidneys from SHR, the renal tissue was homogenized; from tissue; host or cells: kidney homogenate of spontaneously hypertensive rats (SHR); species or system spontaneously hypertensive rats (SHR)
Conditions: rat, SHR kidneys; for inhibition at 30 µmol/kg: oral 30 µmoles/kg
Protocol: The ex-vivo ACE/NEP-inhibitory activity, in particular, was determined by evaluating the enzymatic activity in tissue homogenates (lung and kidney for ACE and NEP activity, respectively) from spontaneously hypertensive rats (SHR) treated with the tested compounds by intravenous or oral route.
The ex vivo NEP-inhibitory activity was evaluated according to the procedure reported in the literature by M. Orlowsky et al., in Biochemistry 1981, 20, 4942-4950.
The inhibitory activity of the compounds of formula I was evaluated in kidneys of spontaneously hypertensive rats (SHR), 5 minutes after i.v. injection (0.6 and 21 µmoles/kg) and 30 minutes, 60 minutes and 4 hours after oral administration (30 µmoles/kg) of the tested compounds.
After the removal of the kidneys from SHR, the renal tissue was homogenized and incubated for 15 minutes at 37°C in the presence of Glutaryl-Ala-Ala-Phe-2-naphthylamide (GAAP), as a substrate, and aminopeptidase M at pH 7.6.
The reaction was stopped by adding an aqueous solution at 10% of trichloroacetic acid.
The released 2-naphthylamine was determined by adding fast garnet dye (2 ml).
Enzyme reaction rates were determined by measuring the increase in the optical density at 524 nm (OD524) with respect to a standard obtained with 2-naphthylamine complexed with fast garnet.
The NEP-inhibitory activity of the tested compounds was expressed as percentage of NEP-inhibition in SHR kidneys.

O=C(N[C@@H](Cc1ccc(-c2nccs2)cc1)C(=O)O)[C@@H](CS)Cc1ccccc1 [Compound 16, N-[(2S)-3-mercapto-2-phenylmethylpropionyl]-4-(2-thiazolyl)-L-phenylalanine]
inhibition at 0.6 µmol/kg (iv, i.v. 0.6 µmoles/kg, 5 minutes after injection): 34%
inhibition at 21 µmol/kg (iv, i.v. 21 µmoles/kg, 5 minutes after injection): 49%
inhibition at 30 µmol/kg (30 minutes after administration, read-out: NEP-inhibition (kidneys) 30 minutes): 55%
inhibition at 30 µmol/kg (60 minutes after administration, read-out: NEP-inhibition (kidneys) 60 minutes): 39%
inhibition at 30 µmol/kg (4 hours after administration, read-out: NEP-inhibition (kidneys) 4 hours): 40%
